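Cultured in 96-well plates, cells were exposed to test compound for 48 hours across five concentrations. Abbreviation: GI50, concentration required for 50% inhibition of growth. TGI: total growth inhibition.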
Key:
Experiment in all cases: NCI-60 cell line screen, 48 h
[1] = test system: 786-0 renal
[2] = test system: A498 renal
[3] = test system: A549 NSCLC
[4] = test system: ACHN renal
[5] = test system: BT-549 breast
[6] = test system: CAKI-1 renal
[7] = test system: CCRF-CEM leukemia
[8] = test system: COLO 205 colon
[9] = test system: DU-145 prostate
[10] = test system: EKVX NSCLC
[11] = test system: HCC-2998 colon
[12] = test system: HCT-116 colon
[13] = test system: HCT-15 colon
[14] = test system: HL-60(TB) leukemia
[15] = test system: HOP-62 NSCLC
[16] = test system: HOP-92 NSCLC
[17] = test system: HS 578T breast
[18] = test system: HT29 colon
[19] = test system: IGROV1 ovarian
[20] = test system: K-562 leukemia
[21] = test system: KM12 colon
[22] = test system: LOX IMVI melanoma
[23] = test system: M14 melanoma
[24] = test system: MALME-3M melanoma
[25] = test system: MCF7 breast
[26] = test system: MDA-MB-231 breast
[27] = test system: MDA-MB-435
[28] = test system: MOLT-4 leukemia
[29] = test system: NCI-H226 lung
[30] = test system: NCI-H23 lung
[31] = test system: NCI-H460 lung
[32] = test system: NCI-H522 lung
[33] = test system: NCI/ADR-RES ovarian
[34] = test system: OVCAR-3 ovarian
[35] = test system: OVCAR-4 ovarian
[36] = test system: OVCAR-5 ovarian
[37] = test system: OVCAR-8 ovarian
[38] = test system: PC-3 prostate
[39] = test system: RPMI-8226 leukemia
[40] = test system: RXF 393 renal
[41] = test system: SF-268 CNS
[42] = test system: SF-295 CNS
[43] = test system: SF-539 CNS
[44] = test system: SK-MEL-2 melanoma
[45] = test system: SK-MEL-28 melanoma
[46] = test system: SK-MEL-5 melanoma
[47] = test system: SK-OV-3 ovarian
[48] = test system: SN12C renal
[49] = test system: SNB-19 CNS
[50] = test system: SNB-75 CNS
[51] = test system: SR leukemia
[52] = test system: SW-620 colon
[53] = test system: T-47D breast
[54] = test system: TK-10 renal
[55] = test system: U251 CNS
[56] = test system: UACC-257 melanoma
[57] = test system: UACC-62 melanoma
[58] = test system: UO-31 renal

Compound: Fc1ccc(-c2nn3c(COc4ccc(Cl)cc4)nnc3s2)cc1Oc1ccccc1
- GI50 [1]: 14.2 µM
- TGI [1]: 30 µM
- GI50 [2]: 15.3 µM
- TGI [2]: 51.8 µM
- GI50 [3]: 21.9 µM
- TGI [3]: > 100 µM
- GI50 [4]: 31.4 µM
- TGI [4]: > 53.1 µM
- GI50 [5]: 24.8 µM
- TGI [5]: 55.3 µM
- GI50 [6]: 34.9 µM
- TGI [6]: > 100 µM
- GI50 [7]: 22.4 µM
- TGI [7]: 74.4 µM
- GI50 [8]: 41.8 µM
- TGI [8]: > 61.8 µM
- GI50 [9]: 48.5 µM
- TGI [9]: > 100 µM
- GI50 [10]: 30.8 µM
- TGI [10]: > 74.2 µM
- GI50 [11]: 30.6 µM
- TGI [11]: 92.8 µM
- GI50 [12]: 20.6 µM
- TGI [12]: > 52.3 µM
- GI50 [13]: > 60.6 µM
- TGI [13]: > 100 µM
- GI50 [14]: > 100 µM
- TGI [14]: > 100 µM
- GI50 [15]: 16.6 µM
- TGI [15]: 35.6 µM
- GI50 [16]: 10.1 µM
- TGI [16]: 21.7 µM
- GI50 [17]: 22.4 µM
- TGI [17]: 61.4 µM
- GI50 [18]: > 47.9 µM
- TGI [18]: > 74.8 µM
- GI50 [19]: 22.2 µM
- TGI [19]: > 54.1 µM
- GI50 [20]: 42.1 µM
- TGI [20]: > 100 µM
- GI50 [21]: 40.8 µM
- TGI [21]: > 100 µM
- GI50 [22]: > 42.2 µM
- TGI [22]: > 56.3 µM
- GI50 [23]: > 49.5 µM
- TGI [23]: > 79.3 µM
- GI50 [24]: 29 µM
- TGI [24]: 67.4 µM
- GI50 [25]: 21.9 µM
- TGI [25]: > 48.3 µM
- GI50 [26]: 16.4 µM
- TGI [26]: 35.8 µM
- GI50 [27]: 30.8 µM
- TGI [27]: > 71.1 µM
- GI50 [28]: 3.51 µM
- TGI [28]: 17.7 µM
- GI50 [29]: 28.7 µM
- TGI [29]: 84.4 µM
- GI50 [30]: 20.4 µM
- TGI [30]: 40.2 µM
- GI50 [31]: 23.9 µM
- TGI [31]: > 54.5 µM
- GI50 [32]: 26.1 µM
- TGI [32]: > 66.8 µM
- GI50 [33]: 30.5 µM
- TGI [33]: 95.5 µM
- GI50 [34]: 14.1 µM
- TGI [34]: 37.8 µM
- GI50 [35]: 50.4 µM
- TGI [35]: > 100 µM
- GI50 [36]: 24.5 µM
- TGI [36]: > 59.1 µM
- GI50 [37]: 21.2 µM
- TGI [37]: 66.3 µM
- GI50 [38]: 0.0735 µM
- TGI [38]: 13.6 µM
- GI50 [39]: 13.9 µM
- TGI [39]: 29 µM
- GI50 [40]: 26.3 µM
- TGI [40]: 87.5 µM
- GI50 [41]: 20 µM
- TGI [41]: 54.1 µM
- GI50 [42]: 15.2 µM
- TGI [42]: 33.5 µM
- GI50 [43]: 22.5 µM
- TGI [43]: > 55.5 µM
- GI50 [44]: 38.6 µM
- TGI [44]: > 100 µM
- GI50 [45]: 37 µM
- TGI [45]: > 100 µM
- GI50 [46]: 18.2 µM
- TGI [46]: 41.5 µM
- GI50 [47]: 78.9 µM
- TGI [47]: > 100 µM
- GI50 [48]: > 46.1 µM
- TGI [48]: > 67 µM
- GI50 [49]: 30.2 µM
- TGI [49]: > 58.5 µM
- GI50 [50]: 61 µM
- TGI [50]: > 100 µM
- GI50 [51]: > 100 µM
- TGI [51]: > 100 µM
- GI50 [52]: 48.4 µM
- TGI [52]: > 100 µM
- GI50 [53]: 28 µM
- TGI [53]: > 66.3 µM
- GI50 [54]: 13.8 µM
- TGI [54]: 30.3 µM
- GI50 [55]: 25.1 µM
- TGI [55]: > 53.5 µM
- GI50 [56]: 41.6 µM
- TGI [56]: > 100 µM
- GI50 [57]: 32.4 µM
- TGI [57]: > 63.4 µM
- GI50 [58]: 24.4 µM
- TGI [58]: > 100 µM

— PubChem BioAssay (NCI)
